The values that follow come from patent US12404255B2, “Compound and pharmaceutical composition containing same for treating or preventing neural damage, neural disease, or developmental disorder through promoting proliferation, differentiation, and/or regeneration of neural cells” (ETNOVA THERAPEUTICS CORP., priority 2020, dated 2025).

The nature of data set [1]: Solubility test in deionized water. The format is physicochemical. On the procedure: In order to check the solubility of the compound according to the present disclosure, each of MMB-11903B according to the present disclosure prepared in the Preparation Example and ATRA was added to 1 mL of deionized water at a concentration of 100 mM (Compound MMB-11903B according to the present disclosure: 72.8 mg/mL; ATRA: 30.0 mg/mL) and each mixed solution was stirred for dissolution by lightly vortexing the same. After each of the prepared solution of the compound MMB-11903B according to the present disclosure and the prepared ATRA solution was left at room temperature for 20 minutes, an image thereof was taken again to observe a dissolution state of each compound in each solution (FIG. 1).
Thus, the compound MMB-11903B according to the present disclosure may be easily dissolved in the solvent such as water, so that it has high solubility, and further has solubility stability, so that it may maintain a dissolved state even after being left for a long time.

Data set [2] relates to SH-SY5Y. Conditions: human, 24 h, 200 μM. The source says:
(§1) The calculated values were graphed using the GraphPad Prism application.

Data set [3] relates to human neuroblastoma SH-SY5Y. The data set can be described thus: Cell viability test using CCK-8. Conditions: CCK-8, 0-50 μM, 24, 48, 72 hours. It counts as cell-based. The method, then: Cell viability analysis of a nerve cell line using CCK-8 was performed on human neuroblastoma SH-SY5Y as an undifferentiated nerve cell line. For reference, the analysis using the CCK-8 (Cell counting kit-8) was based on a highly water-soluble tetrazolium salt-SST-8. The analysis is based on the fact that when [2-(2-methoxy-4-nitrophenyl)-3-(4-nitrophenyl)(2,4-disulfophenyl)-2H-tetrazolium, monosodium salt] is reduced under presence of an electron mediator, a water-soluble formazan orange dye is produced, and an amount of the formazan dye produced by dehydrogenase in cells is directly proportional to the number of living cells. The specific experimental method is as follows.
The next day, the growth medium was removed therefrom. […] At 2 hours before a harvest time, 10 μL of CCK-8 solution was added to each well and the cells were incubated for an additional 2 hours. […] Cell viability (%)=B/A×100(%) [Cell viability calculation equation]
(In the equation, A denotes an absorbance value measured in a control well, and B denotes an absorbance value measured in the well containing the drug).

Data set [4] deals with SH-SY5Y. The data set can be described thus: Neurite elongation and new neuron generation and growth using immunofluorescence staining (color histogram). It counts as cell-based, human. Conditions: 10 μM, day 3. On the procedure: For cell viability analysis, stabilized cells were planted in a 60 mm dish at a density of ×10^5 cells/dish. […] The next day, the growth medium was removed therefrom. […] Then, the cells were incubated therein for 1, 3, and 5 days, and under at 37° C. and 5% C02 condition. The cells were harvested and were washed with DPBS, and fixed with 10% Neutral Buffered Formalin for 10 minutes, washed 3 times with Tris-buffered saline (TBS), and then a reaction thereof was carried out for 15 minutes in 0.3% Triton X-100 (in TBS). The cells were washed three times in TBS, and a solution of 5% Bovine serum albumin (BSA) and Normal Goat Serum (NGS) in TBS was added thereto and a reaction thereof was carried out at 4° C. for 24 hours. Differentiation into the nerve cells and formation of the neurite were identified using j-III tubulin primary antibody as a neuron specific marker and doublecortin primary antibody as a newborn immature neuron marker. […] The cells were washed three times with TBS, and were mounted (VECTASHIELD® Mounting Medium with DAPI; Vector Laboratories, Burlingame, CA, USA), and images were acquired with a fluorescence microscope. […]
The color histogram was measured using the ImageJ program.

In data set [5] the test system is SH-SY5Y. The experiment in a line: Cell proliferation effect using immunofluorescence staining (Ki-67 positive cells). Conditions: 1st day of exposure. The format is cell-based, human. The method, then: The number of cells which were positive relative to Ki-67 as a marker for neuronal proliferation was analyzed. The number of the positive cells was automatically obtained using the ImageJ program. Ki-67 positive cells (%)=(ki-67 positive cell number/DAPI positive cell number)×100 [Calculation equation of Ki-67 positive cell number]
The calculated values were graphed using the GraphPad Prism application. […] The statistical significance of the obtained values was identified via one-way ANOVA with Dunnett's multiple comparison test. *p<0.5, **p<0.1, ***p<0.01 vs. control, #p<0.5, ##p<0.1 vs. DO3A, †p<0.5, †††p<0.01 vs. ATRA indicate presence of statistical significance.

Data set [6] relates to SH-SY5Y. The data set can be described thus: Changes in morphology of nerve cells (inverted microscope). The format is cell-based, human. More on the design: neurite elongation / change in cell morphology: dose or concentration left out as unconfirmed. Conditions: microscope image. The method, then:
For cell viability analysis, stabilized cells were planted in a 60 mm dish at a density of ×10^5 cells/dish. […] The next day, the growth medium was removed therefrom. […] Then, the cells were incubated therein for 1, 3, and 5 days, and under at 37° C. and 5% CO2 condition. Cell morphology was imaged with a Nikon inverted microscope (Nikon, ECLIPSE Ts2, Nikon Corporation, Tokyo, Japan).

The subject of data set [7] is SH-SY5Y. The data set can be described thus: Neurite elongation promoting effect using immunofluorescence staining. Conditions: 10 μM. It counts as cell-based, human.
From the text: as §1

Regarding `CC1=C(/C=C/C(C)=C/C=C/C(C)=C/C(=O)O)C(C)(C)CCC1` [ATRA, all-trans retinoic acid], in data set [1] (100 mM in 1 mL deionized water, light vortexing, initial state), the “dissolution state immediately after dissolution” value is listed as “uniformly dissolved in the solution initially”. In addition, the “dissolution state after being left” value in data set [1] (100 mM in deionized water, left at room temperature for 20 minutes) was “separated from the solvent and was precipitated over time”. Also, the cytotoxicity entry in data set [2] was “approximately 55%”. For the same compound, the “cell viability, dependence on concentration and time” value in data set [3] is “the higher the concentration of ATRA and the longer the time, the lower the cell viability”. The “expression level of new neurons (color histogram)” value in data set [4] is given as “low expression level of new neurons”. The “cell proliferation (Ki-67 positive cells) versus control” value in data set [5] was “did not exhibit a significant difference from that of the control”.

In the case of `O=C(O)CN1CCNCCN(CC(=O)O)CCN(CC(=O)O)CC1` [DO3A], the “neurite elongation / change in cell morphology” value in data set [6] (1, 3, and 5 days) is recorded as “neurite elongation was not observed”. Moreover, the “apoptosis due to cytotoxicity” value in data set [6] (5-20 μM, 1-5 days) was “observed at 10 μM, 5 days and at 20 μM, and 3 days”. In addition, in data set [5], the “cell proliferation (Ki-67 positive cells) versus control” value was “approximately two times larger than the control”. Besides, in data set [7] (ImageJ measurement after fluorescent staining), the “neurite length versus control” value was “did not achieve the neurite elongation as in the control”. The “neurite elongation in fluorescence image” value in data set [7] (1, 3, and 5 days, tubulin and doublecortin staining) is given as “neurite elongation was not observed”.
